Data reported in patent US20220313698A1, “MODULATORS OF CYSTIC FIBROSIS TRANSMEMBRANE CONDUCTANCE REGULATOR” (Vertex Pharmaceuticals Incorporated, priority 2019, published 2022).

Target: CFTR-mediated chloride transport (Homo sapiens, UniProt P13569)
Assay: Corrector Assay A - membrane potential dye assay (enteroid cells)
Conditions: for EC50: read-out: Corrector Assay A EC50, human intestinal enteroid cells, 18-24 h incubation, acute 10 μM forskolin + 300 nM ivacaftor
[1] = % of chloride transport of triple combination control (1 μM (14S)-dispiro macrocycle + 3 μM tezacaftor + 300 nM ivacaftor)

Description: Base medium (ADF+++) consisted of Advanced DMEM/Ham's F12, 2 mM Glutamax, 10 mM HEPES, 1 μg/ml penicillin/streptomycin.
Intestinal enteroid maintenance medium (IEMM) consisted of ADF+++, 1×B27 supplement, 1×N2 supplement, 1.25 mM N-acetyl cysteine, 10 mM Nicotinamide, 50 ng/mL hEGF, 10 nM Gastrin, 1 μg/mL hR-spondin-1, 100 ng/mL hNoggin, TGF-b type 1 inhibitor A-83-01, 100 μg/mL Primocin, 10 μM P38 MAPK inhibitor SB202190.
Bath 1 Buffer consisted of 1 mM MgCl2, 160 mM NaCl, 4.5 mM KCl, 10 mM HEPES, 10 mM Glucose, 2 mM CaCl2).
Chloride Free Buffer consisted of 1 mM Magnesium Gluconate, 2 mM Calcium Gluconate, 4.5 mM Potassium Gluconate, 160 mM Sodium Gluconate, 10 mM HEPES, 10 mM Glucose.
Bath 1 Dye Solution consisted of Bath 1 Buffer, 0.04% Pluronic F127, 20 μM Methyl Oxonol, 30 μM CaCCinh-A01, 30 μM Chicago Sky Blue.
Chloride Free Dye Solution consisted of Chloride Free Buffer, 0.04% Pluronic F127, 20 μM Methyl Oxonol, 30 μM CaCCinh-A01, 30 μM Chicago Sky Blue.
Chloride Free Dye Stimulation Solution consisted of Chloride Free Dye Solution, 10 μM forskolin, 100 μM IBMX, and 300 nM Ivacaftor.
Cells were recovered in cell recovery solution, collected by centrifugation at 650 rpm for 5 min at 4° C., resuspended in TryPLE and incubated for 5 min at 37° C. Cells were then collected by centrifugation at 650 rpm for 5 min at 4° C. and resuspended in IEMM containing 10 μM ROCK inhibitor (RI). The cell suspension was passed through a 40 μm cell strainer and resuspended at 1×10^6 cells/mL in IEMM containing 10 μM RI. Cells were seeded at 5000 cells/well into multi-well plates and incubated for overnight at 37° C., 95% humidity and 5% CO2 prior to assay.
Briefly, cells were washed 5 times in Bath 1 Buffer. Bath 1 Dye Solution was added and the cells were incubated for 25 min at room temperature. Following dye incubation, cells were washed 3 times in Chloride Free Dye Solution. Chloride transport was initiated by addition of Chloride Free Dye Stimulation Solution and the fluorescence signal was read for 15 min. The CFTR-mediated chloride transport for each condition was determined from the AUC of the fluorescence response to acute forskolin and 300 nM N-[2,4-bis(1,1-dimethylethyl)-5-hydroxyphenyl]-1,4-dihydro-4-oxoquinoline-3-carboxamide stimulation. Chloride transport was then expressed as a percentage of the chloride transport following treatment with 1 μM (14S)-8-[3-(2-{Dispiro[2.0.2.1]heptan-7-yl}ethoxy)-1H-pyrazol-1-yl]-12,12-dimethyl-2λ^6-thia-3,9,11,18,23-pentaazatetracyclo[17.3.1.111,14.05,10]tetracosa-1(22),5,7,9,19(23),20-hexaene-2,2,4-trione, 3 μM (R)-1-(2,2-difluorobenzo[d][1,3]dioxol-5-yl)-N-(1-(2,3-dihydroxypropyl)-6-fluoro-2-(1-hydroxy-2-methylpropan-2-yl)-1H-indol-5-yl)cyclopropanecarboxamide and 300 nM acute N-[2,4-bis(1,1-dimethylethyl)-5-hydroxyphenyl]-1,4-dihydro-4-oxoquinoline-3-carboxamide triple combination control (% Activity).

| SMILES | Corrector Assay A % activity [1] | EC50 [µM] | Corrector Assay A % activity (given as a number, not a class symbol, % of triple combination control) [%] |
| --- | --- | --- | --- |
| CN1CCN(c2cccc([C@H]3CC[C@@H]4CN(c5nc(C(C)(C)C)ccc5C(=O)NS(=O)(=O)c5cccc(n5)N3)C(C)(C)C4)n2)CC1 [Compound 195, (14S,17R)-8-tert-butyl-12,12-dimethyl-17-[6-(4-methylpiperazin-1-yl)pyridin-2-yl]-2λ^6-thia-3,9,11,18,23-pentaazatetracyclo[17.3.1.111,14.05,10]tetracosa-1(22),5,7,9,19(23),20-hexaene-2,2,4-trione] | +++ (+++ is >60%) | < 1 | – |
| CC(C)(C)c1ccc2c(n1)N1C[C@@H](CC[C@@H](c3cc(C(F)(F)F)ccn3)Nc3cccc(n3)S(=O)(=O)NC2=O)CC1(C)C (single isomer, unassigned) [Compound 92] | – | < 1 | 52.5 |
| CC(C)c1ccc(-c2ccc3c(n2)N2C[C@@H](CC[C@H](c4ccccn4)Nc4cccc(n4)S(=O)(=O)NC3=O)CC2(C)C)cc1 [Compound 347] | +++ (+++ is >60%) | < 1 | – |
| CC(C)(C)c1ccc2c(n1)N1C[C@@H](CCC(c3ccncc3)Nc3cccc(n3)S(=O)(=O)NC2=O)CC1(C)C (single isomer, unassigned) [Compound 232] | +++ (+++ is >60%) | < 1 | – |
| CC(C)n1cc(-c2ccc3c(n2)N2C[C@@H](CC[C@@H](c4ccccn4)Nc4cccc(n4)S(=O)(=O)NC3=O)CC2(C)C)cn1 [Compound 345] | ++ (++ is 30-60%) | < 1 | – |
| CC(C)(C)c1ccc2c(n1)N1C[C@@H](CCC(c3ccc(CCC#N)cn3)Nc3cccc(n3)S(=O)(=O)NC2=O)CC1(C)C (stereo partly drawn) [Compound 146, 3-{6-[(14S)-8-tert-butyl-12,12-dimethyl-2,2,4-trioxo-2λ^6-thia-3,9,11,18,23-pentaazatetracyclo[17.3.1.111,14.05,10]tetracosa-1(23),5(10),6,8,19,21-hexaen-17-yl]pyridin-3-yl}propanenitrile] | +++ (+++ is >60%) | < 1 | – |
| CC(C)(C)c1ccc2c(n1)N1C[C@@H](CCC(c3cc(C(C)(C)O)ccn3)Nc3cccc(n3)S(=O)(=O)NC2=O)CC1(C)C (single isomer, unassigned) [Compound 36] | +++ (+++ is >60%) | < 1 | – |
| CN1c2cccc(n2)S(=O)(=O)NC(=O)c2ccc(C(C)(C)C)nc2N2C[C@@H](CC[C@H]1c1ccccc1)CC2(C)C [Compound 262] | +++ (+++ is >60%) | < 1 | – |
| Cc1cccc2cc3c(nc12)N1C[C@@H](CCC(c2cc(C(C)(C)C)ccn2)Nc2cccc(n2)S(=O)(=O)NC3=O)CC1(C)C (single isomer, unassigned) [Compound 3] | +++ (+++ is >60%) | < 1 | – |
| CC(C)(C)c1ccc2c(n1)N1C[C@@H](CCC(c3cc(N)ccn3)Nc3cccc(n3)S(=O)(=O)NC2=O)CC1(C)C (single isomer, unassigned) [Compound 48] | ++ (++ is 30-60%) | 1 to 3 | – |
| CC(C)(C)c1ccc2c(n1)N1C[C@@H](CCC(c3cc(CN)ccn3)Nc3cccc(n3)S(=O)(=O)NC2=O)CC1(C)C (single isomer, unassigned) [Compound 116] | +++ (+++ is >60%) | < 1 | – |
| CC(C)(C)c1ccc2c(n1)N1C[C@@H](CCC(c3ccc(Br)cn3)Nc3cccc(n3)S(=O)(=O)NC2=O)CC1(C)C (single isomer, unassigned) [Compound 172] | +++ (+++ is >60%) | < 1 | – |
| Cn1cc(C2CC[C@@H]3CN(c4nc(C(C)(C)C)ccc4C(=O)NS(=O)(=O)c4cccc(n4)N2)C(C)(C)C3)cn1 (single isomer, unassigned) [Compound 280] | +++ (+++ is >60%) | < 1 | – |
| CC(C)(C)c1ccc2c(n1)N1C[C@@H](CCC(c3ccc(CCCN)cn3)Nc3cccc(n3)S(=O)(=O)NC2=O)CC1(C)C (stereo partly drawn) [Compound 138, (14S)-17-[5-(3-aminopropyl)pyridin-2-yl]-8-tert-butyl-12,12-dimethyl-2λ^6-thia-3,9,11,18,23-pentaazatetracyclo[17.3.1.111,14.05,10]tetracosa-1(23),5(10),6,8,19,21-hexaene-2,2,4-trione] | ++ (++ is 30-60%) | < 1 | – |
| CC(C)(C)c1ccc2c(n1)N1C[C@@H](CCC(CCC(C3CC3)C3CC3)Nc3cccc(n3)S(=O)(=O)NC2=O)CC1(C)C (single isomer, unassigned) [Compound 51] | + (+ is <30%) | > 3 | – |
| COc1ccn(-c2ccc3c(n2)N2C[C@@H](CC[C@H](c4ccccn4)Nc4cccc(n4)S(=O)(=O)NC3=O)CC2(C)C)n1 [Compound 335] | +++ (+++ is >60%) | < 1 | – |

| SMILES | Corrector Assay A % activity [1] | EC50 [µM] | Corrector Assay A % activity (given as a number, not a class symbol, % of triple combination control) [%] |
| --- | --- | --- | --- |
| CC1(C)C[C@@H]2CCC(c3ccccn3)Nc3cccc(n3)S(=O)(=O)NC(=O)c3ccc(-n4ccc(OCCC5C6(CC6)C56CC6)n4)nc3N1C2 (stereo partly drawn) [Compound 355, (14S)-8-[3-(2-{dispiro[2.0.2.1]heptan-7-yl}ethoxy)-1H-pyrazol-1-yl]-12,12-dimethyl-17-(pyridin-2-yl)-2λ^6-thia-3,9,11,18,23-pentaazatetracyclo[17.3.1.111,14.05,10]tetracosa-1(22),5,7,9,19(23),20-hexaene-2,2,4-trione] | +++ (+++ is >60%) | < 1 | – |
| C[C@@H](O)C[C@@H]1CC[C@@H]2CN(c3nc(C(C)(C)C)ccc3C(=O)NS(=O)(=O)c3cccc(n3)N1)C(C)(C)C2 (single isomer, unassigned) [Compound 27] | ++ (++ is 30-60%) | < 1 | – |
| CC(C)(C)c1ccc2c(n1)N1C[C@@H](CC[C@H](c3cccc(CCC#N)n3)Nc3cccc(n3)S(=O)(=O)NC2=O)CC1(C)C [Compound 140] | ++ (++ is 30-60%) | < 1 | – |
| CC(C)(C)C#Cc1ccc2c(n1)N1C[C@@H](CC[C@@H](c3ccccn3)Nc3cccc(n3)S(=O)(=O)NC2=O)CC1(C)C [Compound 176] | ++ (++ is 30-60%) | < 1 | – |
| COC(=O)CCc1ccc(C2CC[C@@H]3CN(c4nc(C(C)(C)C)ccc4C(=O)NS(=O)(=O)c4cccc(n4)N2)C(C)(C)C3)nc1 (stereo partly drawn) [Compound 91, methyl 3-{6-[(14S)-8-tert-butyl-12,12-dimethyl-2,2,4-trioxo-2λ^6-thia-3,9,11,18,23-pentaazatetracyclo[17.3.1.111,14.05,10]tetracosa-1(23),5(10),6,8,19,21-hexaen-17-yl]pyridin-3-yl}propanoate] | ++ (++ is 30-60%) | > 3 | – |
| CC(C)C1CC[C@@H]2CN(c3nc(-n4ccc(OCCC5C6(CC6)C56CC6)n4)ccc3C(=O)NS(=O)(=O)c3cccc(n3)N1)C(C)(C)C2 (single isomer, unassigned) [Compound 354] | +++ (+++ is >60%) | < 1 | – |
| COC[C@@H]1CC[C@@H]2CN(c3nc(C(C)(C)C)ccc3C(=O)NS(=O)(=O)c3cccc(n3)N1)C(C)(C)C2 (single isomer, unassigned) [Compound 277] | +++ (+++ is >60%) | < 1 | – |
| CC(C)(C)c1ccc2c(n1)N1C[C@@H](CCC(c3cc(C#N)ccn3)Nc3cccc(n3)S(=O)(=O)NC2=O)CC1(C)C (single isomer, unassigned) [Compound 144] | +++ (+++ is >60%) | < 1 | – |
| CN1CCC(C2CC[C@@H]3CN(c4nc(C(C)(C)C)ccc4C(=O)NS(=O)(=O)c4cccc(n4)N2)C(C)(C)C3)CC1 (single isomer, unassigned) [Compound 241] | ++ (++ is 30-60%) | < 1 | – |
| CC(C)(C)CCOc1ccn(-c2ccc3c(n2)N2C[C@@H](CC[C@H](c4cccc(C(F)(F)F)n4)Nc4cccc(n4)S(=O)(=O)NC3=O)CC2(C)C)n1 [Compound 306, (14S,17R)-8-[3-(3,3-dimethylbutoxy)-1H-pyrazol-1-yl]-12,12-dimethyl-17-[6-(trifluoromethyl)pyridin-2-yl]-2λ^6-thia-3,9,11,18,23-pentaazatetracyclo[17.3.1.111,14.05,10]tetracosa-1(22),5,7,9,19(23),20-hexaene-2,2,4-trione] | ++ (++ is 30-60%) | < 1 | – |
| CC(C)(C)c1ccc2c(n1)N1C[C@@H](CC[C@H](c3cccc(-c4cn[nH]c4)n3)Nc3cccc(n3)S(=O)(=O)NC2=O)CC1(C)C [Compound 67] | +++ (+++ is >60%) | < 1 | – |
| CC(C)(C)c1ccc2c(n1)N1C[C@@H](CC[C@H](c3cccc(C4=CCOCC4)n3)Nc3cccc(n3)S(=O)(=O)NC2=O)CC1(C)C [Compound 150] | +++ (+++ is >60%) | < 1 | – |
| CC(C)(C)c1ccc2c(n1)N1C[C@@H](CCC(c3ccc(C4CCOCC4)cn3)Nc3cccc(n3)S(=O)(=O)NC2=O)CC1(C)C (stereo partly shown) [Compound 156] | ++ (++ is 30-60%) | < 1 | – |
| CC(C)(C)c1ccc2c(n1)N1C[C@@H](CCC(c3ccc(Cl)cn3)Nc3cccc(n3)S(=O)(=O)NC2=O)CC1(C)C (single isomer, unassigned) [Compound 209] | ++ (++ is 30-60%) | < 1 | – |
| CC1(C)C[C@@H]2CC[C@H](c3ccccn3)Nc3cccc(n3)S(=O)(=O)NC(=O)c3ccc(Cc4ccccc4)nc3N1C2 [Compound 159] | +++ (+++ is >60%) | < 1 | – |
| CC1(C)C[C@@H]2CC[C@H](c3ccccn3)Nc3cccc(n3)S(=O)(=O)NC(=O)c3ccc(Br)nc3N1C2 [Compound 246, (14S,17R)-8-bromo-12,12-dimethyl-17-(pyridin-2-yl)-2λ^6-thia-3,9,11,18,23-pentaazatetracyclo[17.3.1.111,14.05,10]tetracosa-1(22),5,7,9,19(23),20-hexaene-2,2,4-trione] | ++ (++ is 30-60%) | < 1 | – |
